In patent US11028137B2, “Mutant islet amyloid polypeptides with improved solubility and methods for using the same” (priority 2017, dated 2021):
Where a SMILES comes first, the peptide text is derived from it.

Legend:
[1] = Thioflavin-T fluorescence assay of amyloid formation kinetics; assay type: physicochemical; conditions: 16 μM peptide, 10 mM PBS pH 7.4, 25° C., no stirring; 1 week and 6 week incubations
Description: Sample Preparation. Each peptide was dissolved into 100% hexafluoroisoproponal (HFIP) to make a 0.5 mM stock solution. Stock solutions were filtered using […] Acrodisc syringe filter with a GHP membrane and the required amount of peptide was lyophilized overnight to remove HFIP. Dry peptide was dissolved into the appropriate buffer for the fluorescence assays. Fluorescence Assays. Thioflavin-T binding assays, conducted without HFIP or stirring at 25° C., were utilized to monitor amyloid formation kinetics. Fluorescence measurements were performed using a Spectramax Gemini EM plate reader. Corning 96-well non-binding surface black plates with lids were used and were sealed with polyethylene sealing tape. Samples were prepared by dissolving dry peptide into 10 mM PBS buffer (pH 7.4) and 32 μM thioflavin-T solution immediately before the measurement. Thioflavin-T fluorescence was measured with 450 nm excitation and emission at 485 nm was monitored. The final concentrations were 16 μM peptides. After creating the mutant-hIAPP polypeptides of the present disclosure, applicants tested the propensity of the different analogs to form amyloid at pH 7.4 using thioflavin-T fluorescence assays (FIGS. 2A-D) and TEM (FIGS. 3A-E). […] Amyloid formation follows a sigmoidal time course consisting of a lag phase in which few, if any, fibrils are formed, followed by a growth phase and a saturation phase in which amyloid fibrils are in equilibrium with soluble peptide.

[2] = pH 7.4
Description: Dry peptides were dissolved into 10 mM PBS buffer at pH 7.4 at different initial concentrations, and were incubated for 7 days at 25° C. without stirring. Each sample was then centrifuged using a Beckman Coulter Microfuge 22R Centrifuge at 24° C. for 20 min. The relative centrifugal force used was 1.75×10^4 g. Solubility of each sample was approximated by measuring the absorbance of the corresponding supernatant at 280 nm measured using a Beckman Coulter DU 730 UV/Vis Spectrophotometer.
Each peptide tested was incubated in 10 mM PBS buffer at pH 7.4 for 7 days at three different concentrations (100 μM, 500 μM and 1 mM) and the solution was then centrifuged. The apparent solubility was represented by the absorbance of the supernatant of each sample measured at 280 nm. The extinction coefficients of all polypeptides are very similar at 280 nm since they all contain the same aromatic residues and each contains a disulfide bond. […] A peptide which is soluble at 1 mM and above will show a linear dependence of absorbance on initial concentration. A peptide which is less soluble will deviate from linearity. The peptides were centrifuged after 7 days and their apparent solubility measured by measuring the absorbance at 280 nm of the supernatant of each solution. The apparent concentration refers to the concentration which would be obtained if all of the peptide dissolved. The absorbance of the supernatant is directly proportion to the amount of peptide in solution.

[3] = biological target: T1, human calcitonin receptor (hCT(a)) (Homo sapiens, UniProt P30988); assay: cAMP production (LANCE cAMP assay) in transfected Cos-7 cells; assay type: cell-based; conditions: Cos-7 cells expressing hCT(a); for EC50: cAMP production, mean ± spread, read-out: Human calcitonin receptor binding data pEC50 (converted)
T1 construct: expressed in transfected cells; host or cells: Cos-7 cells, transient transfection with PEI, pcDNA3.1 vectors
T1 sequence (P30988 25-474): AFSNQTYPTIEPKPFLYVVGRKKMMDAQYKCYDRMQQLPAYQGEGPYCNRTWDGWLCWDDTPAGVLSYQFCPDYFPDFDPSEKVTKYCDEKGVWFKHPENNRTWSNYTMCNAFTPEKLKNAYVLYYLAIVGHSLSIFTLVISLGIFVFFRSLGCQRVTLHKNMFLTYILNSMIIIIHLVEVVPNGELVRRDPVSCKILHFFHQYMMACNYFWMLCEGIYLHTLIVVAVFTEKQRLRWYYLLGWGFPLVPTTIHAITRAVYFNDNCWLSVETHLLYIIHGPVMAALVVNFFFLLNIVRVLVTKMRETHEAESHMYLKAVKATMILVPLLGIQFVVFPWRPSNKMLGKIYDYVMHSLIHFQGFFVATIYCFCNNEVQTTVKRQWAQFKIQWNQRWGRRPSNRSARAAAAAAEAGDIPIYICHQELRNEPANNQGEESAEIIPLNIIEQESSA
Description: (§1) Cell Culture and Transfection. Cos-7 cells were cultured and transfected for receptor activity assays as previously described in Bailey, R. J., and Hay, D. L. Peptides (2006) 27, pp. 1367-1375, the entire contents of which is incorporated herein by reference. Specifically, cells were cultured in Dulbucco's modified eagle medium (DMEM) with 8% heat-inactivated fetal bovine serum (FBS) and kept in a 37° C. humidified 95% air/5% CO2 incubator. Cells were plated at a density of 18,000-20,000 cells/well (depending on cell passage) in 96-well culture plate and returned to the incubator for approximately 18-24 hours. Transient transfections were carried out using polyethyleneimine (PEI) as described previously and maintained at 37° C. in a humidified 95% air/5% CO2 incubator for 36-48 hours. All DNA constructs used in this these were in pcDNA3.1 vectors.
(§2) cAMP Assay: Measurement of intracellular cAMP was achieved using a time-resolved fluorescent resonance energy transfer assay (LANCE cAMP assay, PerkinElmer), similar to the previously described Alphascreen assay as described in Gingell, J. J., et al. Peptides (2010) 31, pp. 1400-1404, with the following changes. Following stimulation with peptide agonist, cAMP assay media from the wells was thoroughly aspirated and 50 μl of ice-cold absolute ethanol added to each well. Plates were then placed in a −30° C. freezer for 10 minutes or overnight prior to assay, then removed and allowed to air dry in a fume hood for 1-2 hours. After ethanol evaporated from the plates, 50 μl of LANCE detection buffer (lysis buffer, 0.35% Triton X-100, 50 mM HEPES and 10 mM calcium chloride in ddH2O, pH 7.4) was added per well and left on a plate shaker for 10-15 minutes at room temperature. Meanwhile, a cAMP standard curve was generated using LANCE detection buffer and a serially diluted cAMP standard (50 μM) ranging from 1 μM to 10 pM. The serially diluted cAMP standards (5 μl) and cell lysates (5 μl) were transferred into 384-well opti-plates and sealed with a Sealplate®-A-384-well microplate adhesive film and briefly centrifuged (10 seconds, 500 rpm, 23° C.). A 1:200 dilution of LANCE assay Alexa Fluor® 647 anti-cAMP antibody was prepared in detection buffer and 5 μl added to each well. Plates were sealed and briefly centrifuged again (10 seconds, 500 rpm, 23° C.) and left to incubate, sealed for 30 minutes at room temperature. During this incubation, detection mix was made up consisting of detection buffer, Europium-W8044 labelled streptavidin (1:4500) and biotin-cAMP (1:1500). After 30 minutes incubation, 10 μl of detection mix was added to each well, plates were centrifuged (30 seconds, 500 rpm, 23° C.), sealed and left to incubate for 1 hour at room temperature. Plates were read after an overnight incubation on an Envision plate reader. A standard curve was included in each experiment to ensure accurate quantification of cAMP.
(§3) Data Analysis for Receptor Assays: Data were derived from independent experiments for statistical analysis and all experiments were performed and replicated. Quantification of cAMP was obtained from a standard curve included in each experiment and plotted using the software GraphPad Prism 6.0 (GraphPad Software Inc, San Diego, Calif., USA) with a non-linear regression 3-parameter logistic equation with a Hill Slope of 1 to determine the pEC50. The pEC50 values from the fits were combined from different experimental days and statistically tested for difference from the WT peptide using the Student's t-test with statistical significance defined as * p<0.05, ** p<0.01, *** p<0.001. Due to variability in amount of cAMP produced between experimental days, data were normalized to the control peptide for each experiment to obtain Emax values. For each analogue, data were normalized to the maximum (Emax) and minimum (Emin) responses of h-amylin. […]

[4] = biological target: T2, human amylin receptor (hAMY1(a)) (Homo sapiens, UniProt O60894+P30988); assay: as above; assay type: cell-based; conditions: Cos-7 cells expressing hAMY1(a); for EC50: cAMP production, mean ± spread, read-out: Human Amylin1(a) receptor binding data pEC50 (converted)
T2 construct: expressed in transfected cells; host or cells: Cos-7 cells, transient transfection with PEI, pcDNA3.1 vectors
Description: as §1, §2, §3

[5] = pH 7
Description: 100 μL each solution was obtained immediately following dissolution with Novolin-N® and was centrifuged using a Beckman Coulter Microfuge (22R Centrifuge) at 24° C. for 20 minutes. The relative centrifugal force used was 1.75×104 g. Aliquots of each sample were immediately frozen and lyophilized. The remaining portion of each sample was not centrifuged and were incubated at 25° C. without stirring. Samples were collected again following the same procedures after 1 day, 7 days and 30 days. Dry samples were redissolved in 4:1 HPLC buffer mix (4A:1B, below) and immediately injected for liquid chromatography-mass spectroscopy (LC-MS) measurements. The HPLC buffers were (A) H2O (0.1% acetic acid and 0.02% TFA) and (B) CH3CN (0.1% acetic acid and 0.02% TFA). Solubility of each co-formulated sample was determined by measuring the absorbance from the liquid chromatogram traces at 215±8 nm and at 277±8 nm at each time point tested. points (0 hours, 24 hours, 7 days and 30 days post-formulation).

[6] = Transmission electron microscopy (TEM) of amyloid aggregates; assay type: physicochemical; conditions: after 7 days of incubation, end of kinetic experiment
Description: Transmission Electron Microscopy (TEM). TEM images were recorded using an FEI Bio TwinG^2 Transmission Electron Microscope at the central microscopy center at Stony Brook University. 15 μL aliquots of the samples used for fluorescence assays were removed at the end of each kinetic experiment, blotted on a carbon formvar-coated 300-mesh copper grid for 1 min and then negatively stained with saturated uranyl acetate for 1 min. Images were taken at a 68,000× magnification and 100 nm under focus. Mutant-hIAPP polypeptides of the present disclosure were further analyzed using TEM. […] In contrast, no amyloid fibrils were formed after a 1 week (FIGS. 3B-E, left) or 6 week (FIGS. 3B-E, right) culture with the any of the mutant-hIAPP analogs tested.

T2 sequence (O60894 27-148 partner, one chain of several): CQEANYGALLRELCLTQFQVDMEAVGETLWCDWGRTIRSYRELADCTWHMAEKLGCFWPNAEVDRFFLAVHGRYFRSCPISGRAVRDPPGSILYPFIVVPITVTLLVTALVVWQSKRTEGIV

Row | Compound | amyloid formation monitored by thioflavin-T fluorescence [1] | solubility at neutral pH (absorbance of supernatant at 280 nm) [2] | concentration-response of cAMP production compared with wild-type hIAPP [3] | EC50 [3] [nM] | concentration-response of cAMP production compared with wild-type hIAPP [4] | EC50 [4] [nM] | solubility co-formulated with Novolin-N (absorbance at 215 nm and 277 nm, LC-MS) [5] | amyloid aggregates in TEM images [6]
1 | CC(C)C[C@H](NC(=O)[C@H](CCCNC(=N)N)NC(=O)[C@H](CCC(N)=O)NC(=O)[C@@H](NC(=O)[C@H](C)NC(=O)[C@@H]1CSSC[C@H](NC(=O)[C@@H](N)CCCCN)C(=O)N[C@@H](CC(N)=O)C(=O)N[C@@H]([C@@H](C)O)C(=O)N[C@@H](C)C(=O)N[C@@H]([C@@H](C)O)C(=O)N1)[C@@H](C)O)C(=O)N[C@@H](C)C(=O)N[C@@H](CC(N)=O)C(=O)N[C@@H](Cc1ccccc1)C(=O)N[C@@H](CC(C)C)C(=O)N[C@H](C(=O)N[C@@H](Cc1c[nH]cn1)C(=O)N[C@@H](CO)C(=O)N[C@@H](CO)C(=O)N[C@@H](CC(N)=O)C(=O)N[C@@H](CCCCN)C(=O)N[C@@H](Cc1ccccc1)C(=O)N1CCC[C@H]1C(=O)N[C@@H](C)C(=O)N1CCC[C@H]1C(=O)N[C@@H](CC(C)C)C(=O)N[C@@H](CO)C(=O)N[C@@H](CO)C(=O)N[C@H](C(=O)N[C@@H](CCCCN)C(=O)N[C@H](C(=O)NCC(=O)N[C@@H](CO)C(=O)N[C@@H](CC(N)=O)C(=O)N[C@H](C(=O)N[C@@H](Cc1ccc(O)cc1)C(N)=O)[C@@H](C)O)C(C)C)[C@@H](C)O)C(C)C [SEQ ID NO: 10] (HELM PEPTIDE1{K.C.N.T.A.T.C.A.T.Q.R.L.A.N.F.L.V.H.S.S.N.K.F.P.A.P.L.S.S.T.K.V.G.S.N.T.Y.[am]}$PEPTIDE1,PEPTIDE1,2:R3-7:R3$$$V2.0) | none of the mutant hIAPP polypeptides forms amyloid | more substantially soluble than wild-type hIAPP | do not significantly alter amylin or calcitonin receptor activity | 5.01 | do not significantly alter amylin or calcitonin receptor activity | 3.39 | significantly higher absorbance when compared to both wild-type hIAPP and paramlintide | no aggregates are observed
2 | CC[C@H](C)[C@H](NC(=O)[C@H](C)NC(=O)CNC(=O)[C@H](Cc1ccccc1)NC(=O)[C@H](CCCCN)NC(=O)[C@H](CC(N)=O)NC(=O)[C@H](CO)NC(=O)[C@H](CO)NC(=O)[C@H](Cc1c[nH]cn1)NC(=O)[C@@H](NC(=O)[C@H](CC(C)C)NC(=O)[C@H](Cc1ccccc1)NC(=O)[C@H](CC(N)=O)NC(=O)[C@H](C)NC(=O)[C@H](CC(C)C)NC(=O)[C@H](CCCNC(=N)N)NC(=O)[C@H](CCC(N)=O)NC(=O)[C@@H](NC(=O)[C@H](C)NC(=O)[C@@H]1CSSC[C@H](NC(=O)[C@@H](N)CCCCN)C(=O)N[C@@H](CC(N)=O)C(=O)N[C@@H]([C@@H](C)O)C(=O)N[C@@H](C)C(=O)N[C@@H]([C@@H](C)O)C(=O)N1)[C@@H](C)O)C(C)C)C(=O)N[C@@H](CC(C)C)C(=O)N1CCC[C@H]1C(=O)N[C@@H](CO)C(=O)N[C@H](C(=O)N[C@@H](CCCCN)C(=O)N[C@H](C(=O)NCC(=O)N[C@@H](CO)C(=O)N[C@@H](CC(N)=O)C(=O)N[C@H](C(=O)N[C@@H](Cc1ccc(O)cc1)C(N)=O)[C@@H](C)O)C(C)C)[C@@H](C)O [SEQ ID NO: 22] (HELM PEPTIDE1{K.C.N.T.A.T.C.A.T.Q.R.L.A.N.F.L.V.H.S.S.N.K.F.G.A.I.L.P.S.T.K.V.G.S.N.T.Y.[am]}$PEPTIDE1,PEPTIDE1,2:R3-7:R3$$$V2.0) | none of the mutant hIAPP polypeptides forms amyloid | more substantially soluble than wild-type hIAPP | do not significantly alter amylin or calcitonin receptor activity | 2.82 | do not significantly alter amylin or calcitonin receptor activity | 0.372 | significantly higher absorbance when compared to both wild-type hIAPP and paramlintide | no aggregates are observed
